In brackets after ≈: the same amount, converted by molar mass. Several values for one entry are separate records, joined by “and”; a condition that tells them apart may be missing. Identical values can stand only once.
What was measured:
Assay in all cases: ≥ marks a high value that may be exact or a test limit, other limits are often not marked, values filed in µg/mL are converted to µM
Escherichia coli = test system: Escherichia coli
[1] = test system: Staphylococcus aureus ATCC 25923
[2] = test system: Staphylococcus aureus ATCC BAA-1683
[3] = test system: Candida albicans ATCC 10231
[4] = test system: Pseudomonas aeruginosa ATCC BAA-427
Cryptococcus neoformans = test system: Cryptococcus neoformans
[5] = test system: Staphylococcus aureus ATCC 29213
[6] = test system: Bacillus subtilis ATCC 6633
[7] = test system: Klebsiella pneumoniae ATCC 27736
[8] = test system: Candida parapsilosis ATCC 22019
[9] = test system: Staphylococcus aureus ATCC 33592
[10] = test system: Staphylococcus aureus ATCC BAA-44
[11] = test system: Staphylococcus aureus ATCC 700699
[12] = test system: Escherichia coli ATCC 9637
[13] = test system: Staphylococcus aureus ATCC 700698
Escherichia coli TOP 10 = test system: Escherichia coli TOP 10
[14] = test system: Enterococcus faecium ATCC 19434
[15] = test system: Salmonella enterica subsp. enterica serovar Typhimurium ATCC 14028
[16] = test system: Pseudomonas aeruginosa ATCC 27853
[17] = test system: Enterococcus faecalis ATCC 51299
[18] = test system: Acinetobacter baumannii ATCC 19606
[19] = test system: Escherichia coli ATCC 25922
[20] = test system: Staphylococcus epidermidis ATCC 12228
[21] = test system: Escherichia coli ATCC 35218
[22] = test system: Staphylococcus aureus ATCC 12600
Bacillus megaterium Bm11 = test system: Bacillus megaterium Bm11
[23] = test system: Klebsiella pneumoniae ATCC 49472
[24] = test system: Klebsiella pneumoniae ATCC BAA-2814
[25] = test system: Staphylococcus aureus ATCC BAA-2312
[26] = test system: Staphylococcus aureus VRSA10
[27] = test system: Staphylococcus aureus NRS 1
[28] = test system: Staphylococcus aureus VRSA1
[29] = test system: Streptococcus pneumoniae ATCC 700677
[30] = test system: Klebsiella pneumoniae ATCC 700603
[31] = test system: Staphylococcus aureus ATCC 43300
[32] = test system: Pseudomonas aeruginosa FADDI-PA070
[33] = test system: Klebsiella pneumoniae ATCC BAA-2146
[34] = test system: Staphylococcus aureus NRS 17
Escherichia coli UB1005 = test system: Escherichia coli UB1005
[35] = test system: Salmonella enterica subsp. enterica serovar Typhimurium C77-31
[36] = test system: Lacticaseibacillus rhamnosus 1.0936
[37] = test system: Lacticaseibacillus rhamnosus 7469
[38] = test system: Lactiplantibacillus plantarum 8014
Escherichia coli K88 = test system: Escherichia coli K88
Escherichia coli K99 = test system: Escherichia coli K99
[39] = test system: Lacticaseibacillus rhamnosus 1.0385
[40] = test system: Lacticaseibacillus rhamnosus 1.0911
[41] = test system: Salmonella enterica subsp. enterica serovar Pullorum C79-13

CC(C)C[C@H](NC(=O)[C@H](CC(C)C)NC(=O)[C@H](CCCN=C(N)N)NC(=O)[C@H](Cc1c[nH]c2ccccc12)NC(=O)[C@H](Cc1c[nH]c2ccccc12)NC(=O)[C@@H](N)CCCCN)C(=O)N[C@@H](Cc1cnc[nH]1)C(=O)N[C@@H](CCCCN)C(=O)N[C@@H](CCCCN)C(=O)N[C@@H](CCC(N)=O)C(N)=O [KWWRLLHKKQ]
MIC (Escherichia coli): 351 µM (≈ 500 µg/mL)
MIC [1]: 351 µM (≈ 500 µg/mL)
MIC [2]: ≥ 351 µM

CC[C@H](C)[C@H](NC(=O)[C@H](CCCN=C(N)N)NC(=O)CNC(=O)[C@H](CC(C)C)NC(=O)[C@H](CCCCN)NC(=O)[C@H](CCCCN)NC(=O)[C@H](CO)NC(=O)[C@H](Cc1ccccc1)NC(=O)[C@H](Cc1c[nH]c2ccccc12)NC(=O)[C@H](CCCCN)NC(=O)[C@@H](NC(=O)[C@@H](N)Cc1ccccc1)C(C)C)C(=O)N[C@@H](CC(C)C)C(N)=O [FVKWFSKKLGRIL]
MIC [3]: 30 µM (≈ 48.6 µg/mL)
MIC [4]: 15 µM (≈ 24.3 µg/mL)
MIC (Cryptococcus neoformans): 15 µM (≈ 24.3 µg/mL)
MIC [5]: > 30 µM
MIC [6]: 15.2 µM (≈ 24.6 µg/mL)
MIC [7]: 15 µM (≈ 24.3 µg/mL)
MIC [8]: 30 µM (≈ 48.6 µg/mL)
MIC [9]: 30 µM (≈ 48.6 µg/mL)
MIC [1]: 25 µM and 30 µM and 15.4 µM
MIC [10]: 30 µM (≈ 48.6 µg/mL)
MIC [11]: 30 µM (≈ 48.6 µg/mL)
MIC [12]: 12.5 µM (≈ 20.3 µg/mL)
MIC [13]: 30 µM (≈ 48.6 µg/mL)

CC[C@H](C)[C@H](NC(=O)[C@H](CCC(=O)O)NC(=O)[C@H](CCCCN)NC(=O)[C@H](CCC(=O)O)NC(=O)[C@@H](NC(=O)[C@H](CO)NC(=O)[C@H](CCC(N)=O)NC(=O)[C@@H](NC(=O)[C@@H]1CCCN1C(=O)[C@H](CC(=O)O)NC(=O)[C@H](C)NC(=O)[C@H](CCSC)NC(=O)[C@@H](NC(=O)[C@H](Cc1ccccc1)NC(=O)[C@@H](N)CC(C)C)[C@@H](C)O)[C@@H](C)CC)[C@@H](C)CC)C(N)=O [LFTMADPIQSIEKEI]
MIC (Escherichia coli TOP 10): ≥ 57.6 µM

CC[C@H](C)[C@H](NC(=O)CN)C(=O)N[C@@H](Cc1ccccc1)C(=O)N[C@@H](CC(=O)O)C(=O)N[C@H](C(=O)N[C@@H](CC(C)C)C(=O)N[C@@H](CCCCN)C(=O)N[C@@H](CC(N)=O)C(=O)N[C@@H](CC(C)C)C(=O)N[C@@H](C)C(=O)N[C@@H](CCCCN)C(=O)NCC(=O)N[C@H](C(=O)N[C@H](C(=O)N[C@H](C(=O)N[C@@H](CO)C(=O)N[C@@H](CC(C)C)C(=O)N[C@@H](C)C(=O)N[C@@H](CO)C(N)=O)[C@@H](C)O)[C@@H](C)CC)C(C)C)C(C)C [GIFDVLKNLAKGVITSLAS]
MIC [14]: ≥ 62.5 µM
MIC [15]: 62.5 µM (≈ 122 µg/mL)
MIC [16]: 62.5 µM (≈ 122 µg/mL)
MIC [8]: 25 µM (≈ 48.6 µg/mL)
MIC [17]: ≥ 250 µM
MIC [18]: 6.25 µM (≈ 12.2 µg/mL)
MIC [19]: 6.25 µM (≈ 12.2 µg/mL)
MIC [20]: 6.25 µM (≈ 12.2 µg/mL)
MIC [21]: 31.2 µM (≈ 60.8 µg/mL)
MIC [22]: 31.2 µM (≈ 60.8 µg/mL)
MIC (Bacillus megaterium Bm11): 0.78 µM (≈ 1.52 µg/mL)
MIC [23]: ≥ 62.5 µM
MIC [1]: 12.5 µM (≈ 24.3 µg/mL)
MIC [24]: ≥ 62.5 µM
MIC [25]: 31.2 µM (≈ 60.8 µg/mL)

CC[C@H](C)[C@H](N)C(=O)N[C@@H](CC(=O)O)C(=O)N[C@@H](Cc1c[nH]c2ccccc12)C(=O)N[C@@H](CCCCN)C(=O)N[C@@H](CCCCN)C(=O)N[C@H](C(=O)N[C@@H](CC(=O)O)C(=O)N[C@@H](Cc1c[nH]c2ccccc12)C(=O)N[C@@H](CCCCN)C(=O)N[C@@H](CCCCN)C(=O)N[C@H](C(=O)N[C@@H](CO)C(=O)N[C@@H](CCCCN)C(=O)N[C@@H](CCCCN)C(=O)N[C@H](C(=O)N[C@@H](CO)C(=O)N[C@@H](CCCCN)C(=O)N[C@H](C(=O)N[C@@H](CCSC)C(=O)N[C@@H](CC(C)C)C(=O)N[C@@H](CCCCN)C(=O)N[C@@H](C)C(=O)N[C@@H](CO)C(=O)N[C@@H](CCCCN)C(=O)N[C@@H](Cc1ccccc1)C(=O)N[C@@H](CC(C)C)C(N)=O)C(C)C)[C@@H](C)O)C(C)C)C(C)C [IDWKKVDWKKVSKKTSKVMLKASKFL]
MIC [26]: 12.8 µM (≈ 40 µg/mL)
MIC [27]: 12.8 µM (≈ 40 µg/mL)
MIC [16]: > 12.8 µM
MIC [28]: 12.8 µM (≈ 40 µg/mL)
MIC [29]: 12.8 µM (≈ 40 µg/mL)
MIC [18]: 0.566 µM (≈ 1.77 µg/mL)
MIC [19]: 4.53 µM (≈ 14.1 µg/mL)
MIC [30]: 9.05 µM (≈ 28.3 µg/mL)
MIC [31]: > 12.8 µM
MIC [32]: 12.8 µM (≈ 40 µg/mL)
MIC [33]: 2.26 µM (≈ 7.06 µg/mL)
MIC [34]: 12.8 µM (≈ 40 µg/mL)

C[C@@H]1NC(=O)[C@@H](N)CSSC[C@@H](C(=O)O)NC(=O)[C@H](Cc2ccccc2)NC(=O)[C@H](Cc2ccc(O)cc2)NC(=O)[C@H](CO)NC1=O [CASYFC]
MIC (Escherichia coli UB1005): ≥ 64 µM
MIC [35]: ≥ 64 µM
MIC [36]: ≥ 64 µM
MIC [37]: ≥ 64 µM
MIC [15]: > 64 µM
MIC [16]: > 64 µM
MIC [38]: ≥ 64 µM
MIC (Escherichia coli K88): ≥ 64 µM
MIC [5]: > 64 µM
MIC (Escherichia coli K99): ≥ 64 µM
MIC [19]: > 64 µM
MIC [39]: ≥ 64 µM
MIC [31]: > 64 µM
MIC [1]: > 64 µM
MIC [40]: ≥ 64 µM
MIC [41]: ≥ 64 µM

— DBAASP
